Experimental findings from patent US10479770B2, “Phosphatidylinositol 3-kinase inhibitors” (Gilead Sciences, Inc., priority 2016, dated 2019) are described below.

This experiment addresses T1, PI3Kβ (Homo sapiens, UniProt P42338).
T1 construct: made in house
Briefly: TR-FRET enzymatic activity assay against PI3K isoforms. Type of experiment: biochemical. The following applies: 2×Km ATP, 2 μM PIP2, 30 minutes at 25° C., recombinant heterodimeric PI3Kβ 25-50 pM, read-out: IC50-PIP-Beta. Here is the method: The compounds of formula (I) were characterized for their enzymatic activity against the PI3K isoforms. The activities were measured using a time-resolved fluorescence resonance energy transfer (TR-FRET) assay. TR-FRET monitored the formation of 3,4,5-inositol triphosphate molecule that competed with fluorescently labeled PIPS for binding to the GRP-1 pleckstrin homology domain protein.
Class I PI3K isoforms were expressed and purified as heterodimeric recombinant proteins. All assay reagents and buffers for the TR-FRET assay were purchased from Millipore. […] The compounds were added to the assay solution and incubated for 30 minutes at 25° C. The reactions were terminated with a final concentration of 10 mM EDTA, 10 nM labeled-PIPS, and 35 nM Europium labeled GRP-1 detector protein before reading TR-FRET on an Envision plate reader (Ex: 340 nm; Em: 615/665 nm; 100 μs delay and 500 μs read window).
The results were normalized based on positive (1 μM wortmanin) and negative (DMSO) controls, and the IC50 values for PI3K α, β, δ, and γ were calculated from the fit of the dose-response curves to a four-parameter equation. These assays generally produced results within 3-fold of the reported mean.
For orientation: TR-FRET usually uses a lanthanide donor and a delayed reading to cut background.

T1 sequence (P42338 whole entry): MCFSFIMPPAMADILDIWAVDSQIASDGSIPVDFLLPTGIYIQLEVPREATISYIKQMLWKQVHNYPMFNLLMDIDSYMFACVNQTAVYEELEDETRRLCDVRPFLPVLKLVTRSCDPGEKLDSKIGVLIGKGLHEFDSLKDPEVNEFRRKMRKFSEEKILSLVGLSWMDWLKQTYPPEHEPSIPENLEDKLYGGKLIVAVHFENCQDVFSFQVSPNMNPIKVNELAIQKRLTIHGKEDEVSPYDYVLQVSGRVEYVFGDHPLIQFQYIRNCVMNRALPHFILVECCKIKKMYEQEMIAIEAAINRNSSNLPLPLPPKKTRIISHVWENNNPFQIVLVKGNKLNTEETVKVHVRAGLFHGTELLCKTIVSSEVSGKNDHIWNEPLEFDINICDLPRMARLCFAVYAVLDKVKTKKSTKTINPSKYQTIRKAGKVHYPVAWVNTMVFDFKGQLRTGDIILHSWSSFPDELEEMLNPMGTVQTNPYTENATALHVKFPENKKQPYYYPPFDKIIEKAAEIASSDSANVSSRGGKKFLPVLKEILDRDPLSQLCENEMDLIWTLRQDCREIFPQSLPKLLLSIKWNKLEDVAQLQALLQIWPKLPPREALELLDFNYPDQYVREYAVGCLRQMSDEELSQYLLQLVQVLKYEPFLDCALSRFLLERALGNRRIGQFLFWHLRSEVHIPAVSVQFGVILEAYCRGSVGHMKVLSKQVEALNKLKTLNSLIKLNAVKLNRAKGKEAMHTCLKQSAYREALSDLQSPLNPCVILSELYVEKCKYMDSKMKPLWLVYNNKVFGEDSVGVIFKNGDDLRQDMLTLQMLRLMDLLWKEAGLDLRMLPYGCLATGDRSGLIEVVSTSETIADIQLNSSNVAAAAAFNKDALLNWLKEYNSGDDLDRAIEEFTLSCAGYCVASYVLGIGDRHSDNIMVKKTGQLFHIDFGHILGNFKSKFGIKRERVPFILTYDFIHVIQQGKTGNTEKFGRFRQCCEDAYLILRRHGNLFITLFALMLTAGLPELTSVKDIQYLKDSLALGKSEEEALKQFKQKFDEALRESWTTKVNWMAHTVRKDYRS
T1 sequence (P27986 whole entry partner): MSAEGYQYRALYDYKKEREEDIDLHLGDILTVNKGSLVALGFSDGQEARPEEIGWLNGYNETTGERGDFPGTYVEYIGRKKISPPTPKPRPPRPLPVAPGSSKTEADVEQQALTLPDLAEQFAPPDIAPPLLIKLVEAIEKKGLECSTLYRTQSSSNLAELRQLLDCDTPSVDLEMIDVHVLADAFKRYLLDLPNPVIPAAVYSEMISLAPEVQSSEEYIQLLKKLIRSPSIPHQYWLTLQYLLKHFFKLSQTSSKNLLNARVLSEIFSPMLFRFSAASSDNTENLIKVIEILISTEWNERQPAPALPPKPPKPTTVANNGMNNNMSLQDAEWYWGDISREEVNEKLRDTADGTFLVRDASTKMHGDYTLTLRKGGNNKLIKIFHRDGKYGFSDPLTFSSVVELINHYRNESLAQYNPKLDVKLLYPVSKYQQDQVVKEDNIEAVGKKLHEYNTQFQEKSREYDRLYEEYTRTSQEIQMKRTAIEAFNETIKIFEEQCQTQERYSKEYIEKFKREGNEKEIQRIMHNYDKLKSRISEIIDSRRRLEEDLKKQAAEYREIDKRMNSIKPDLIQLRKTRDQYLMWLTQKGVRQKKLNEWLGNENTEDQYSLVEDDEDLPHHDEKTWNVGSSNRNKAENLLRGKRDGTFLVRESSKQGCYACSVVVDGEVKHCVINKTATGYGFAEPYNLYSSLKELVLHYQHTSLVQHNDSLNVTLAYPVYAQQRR

A word on the IC50: it is the point on the concentration scale where inhibition reaches its midpoint. Turning to `CCc1nc2c(-c3nnc[nH]3)cc(N3CCOCC3)cc2n1-c1ccc2ccccc2n1` [Compound 5-9, 4-(2-ethyl-1-(quinolin-2-yl)-4-(4H-1,2,4-triazol-3-yl)-1H-benzo[d]imidazol-6-yl)morpholine], the IC50 was determined as 220 nM.
The value for `Cc1nnc(-c2cc(N3CCOCC3)cc3c2nc(C)n3-c2ccc(F)c3ccccc23)[nH]1` [Compound 5-2, 4-[3-(4-fluoronaphthalen-1-yl)-2-methyl-7-(5-methyl-4H-1,2,4-triazol-3-yl)benzimidazol-5-yl]morpholine] was 43 nM; that for `Cc1nc2c(C(N)=O)cc(N3CCOCC3)cc2n1-c1cccc2c(F)cccc12` [Compound 4-4, 1-(5-fluoronaphthalen-1-yl)-2-methyl-6-morpholin-4-ylbenzimidazole-4-carboxamide] was 13 nM; that for `Cc1nc2c(-c3nnc[nH]3)cc(N3CCOCC3)cc2n1-c1cccc2c(F)cccc12` [Compound 5-13, 4-[3-(5-fluoronaphthalen-1-yl)-2-methyl-7-(4H-1,2,4-triazol-3-yl)benzimidazol-5-yl]morpholine] was 5 nM.
The value for `Cc1nc2c(C(N)=O)cc(N3CCOCC3)cc2n1-c1cnc2c(Cl)cccc2c1` [Compound 4-2, 1-(8-chloroquinolin-3-yl)-2-methyl-6-morpholino-1H-benzo[d]imidazole-4-carboxamide] was 2300 nM.
Under `Fc1cccc2c(-n3cnc4c(-c5nnc[nH]5)cc(N5CCOCC5)cc43)cccc12` [Compound 5-12, 4-[3-(5-fluoronaphthalen-1-yl)-7-(4H-1,2,4-triazol-3-yl)benzimidazol-5-yl]morpholine] stands 2 nM.
On to `CCOC(=O)c1nc2c(C(=O)OC)cc(N3CCOCC3)cc2n1-c1cccc2ccccc12` [Compound 2-3, 2-O-ethyl 4-O-methyl 6-morpholin-4-yl-1-naphthalen-1-ylbenzimidazole-2,4-dicarboxylate], for which the IC50 was 700 nM.
In the case of `Cc1nnc(-c2cc(N3CCOCC3)cc3c2nc(C)n3-c2cc3ccccc3cn2)[nH]1` [Compound 5-15, 4-(1-(isoquinolin-3-yl)-2-methyl-4-(5-methyl-4H-1,2,4-triazol-3-yl)-1H-benzo[d]imidazol-6-yl)morpholine], the IC50 was 3400 nM.
Under `Cc1nc2c(-c3nnc[nH]3)cc(N3CCOCC3)cc2n1-c1cnc2c(Cl)cccc2c1` [Compound 5-7, 4-(1-(8-chloroquinolin-3-yl)-2-methyl-4-(4H-1,2,4-triazol-3-yl)-H-benzo[d]imidazol-6-yl)morpholine] stands 190 nM; under `O=C(O)c1cc(N2CCOCC2)cc2c1ncn2-c1cccc2ccccc12` [Compound 3-1, 6-morpholin-4-yl-1-naphthalen-1-ylbenzimidazole-4-carboxylic acid], above 10000 nM.
Turning to `COC(=O)c1cc(N2CCOCC2)cc2c1nc(C)n2-c1cccc2ccccc12` [Compound 2-1, methyl 1-(naphthalen-1-yl)-2-methyl-6-morpholino-1H-benzo[d]imidazole-4-carboxylate], the IC50 worked out at 140 nM.
Consider `COC(=O)c1cc(N2CCOCC2)cc2c1ncn2-c1cccc2ccccc12` [Compound 2-2, methyl 6-morpholin-4-yl-1-naphthalen-1-ylbenzimidazole-4-carboxylate], for which the IC50 amounted to 230 nM.
Under `Cc1nc2c(-c3nnc[nH]3)cc(N3CCOCC3)cc2n1-c1cnc2ccccc2c1` [Compound 5-6, 4-(2-methyl-1-(quinolin-3-yl)-4-(4H-1,2,4-triazol-3-yl)-1H-benzo[d]imidazol-6-yl)morpholine] stands 720 nM.
Under `CCCc1nc2c(-c3nnc[nH]3)cc(N3CCOCC3)cc2n1-c1cccc2c(F)cccc12` (single isomer, unassigned) [Compound 6-2, 4-[3-(5-fluoronaphthalen-1-yl)-2-propyl-7-(4H-1,2,4-triazol-3-yl)benzimidazol-5-yl]morpholine] stands 3 nM.
The value for `Cc1nc2c(C(N)=O)cc(N3CCOCC3)cc2n1-c1ccc(F)c2ccccc12` [Compound 4-1, 1-(4-fluoronaphthalen-1-yl)-2-methyl-6-morpholino-1H-benzo[d]imidazole-4-carboxamide] was 87 nM.
For the compound `Cc1nc2c(C(N)=O)cc(N3CCOCC3)cc2n1-c1cnc2cccc(Cl)c2c1` [Compound 4-3, 1-(5-chloroquinolin-3-yl)-2-methyl-6-morpholino-lH-benzo[d]imidazole-4-carboxamide], the IC50 came out at 390 nM.
The value for `Cc1nc2c(-c3nnc[nH]3)cc(N3CCOCC3)cc2n1-c1ccc(F)c2ccccc12` [Compound 5-1, 4-(1-(4-fluoronaphthalen-1-yl)-2-methyl-4-(4H-1,2,4-triazol-3-yl)-1H-benzo[d]imidazol-6-yl)morpholine] was 9 nM; that for `CCCc1nc2c(-c3nnc[nH]3)cc(N3CCOCC3)cc2n1-c1cccc2c(F)cccc12` (single isomer, unassigned) [Compound 6-1, 4-[3-(5-fluoronaphthalen-1-yl)-2-propyl-7-(4H-1,2,4-triazol-3-yl)benzimidazol-5-yl]morpholine] was 42 nM.
As for `Cc1nc2c(-c3nnc[nH]3)cc(N3CCOCC3)cc2n1-c1ccc2ccccc2c1` [Compound 5-10, 4-(2-methyl-1-(naphthalen-2-yl)-4-(4H-1,2,4-triazol-3-yl)-1H-benzo[d]imidazol-6-yl)morpholine], the IC50 stood at 38 nM.
Under `CCCc1nc2c(-c3nnc[nH]3)cc(N3CCOCC3)cc2n1-c1cccc2c(F)cccc12` [Compound 5-11, 4-[3-(5-fluoronaphthalen-1-yl)-2-propyl-7-(4H-1,2,4-triazol-3-yl)benzimidazol-5-yl]morpholine] stands 6 nM.
Under `Cc1nc2c(-c3nnc[nH]3)cc(N3CCOCC3)cc2n1-c1cnc2cccc(Cl)c2c1` [Compound 5-8, 4-(1-(5-chloroquinolin-3-yl)-2-methyl-4-(4H-1,2,4-triazol-3-yl)-1H-benzo[d]imidazol-6-yl)morpholine] stands 28 nM; under `CCc1nc2c(-c3nnc[nH]3)cc(N3CCOCC3)cc2n1-c1cnc2ccccc2c1` [Compound 5-4, 4-(2-ethyl-1-(quinolin-3-yl)-4-(4H-1,2,4-triazol-3-yl)-lH-benzo[d]imidazol-6-yl)morpholine], 1200 nM.
The value for `Cc1nc2c(-c3nnc[nH]3)cc(N3CCOCC3)cc2n1-c1cnc2ccc(Cl)cc2c1` [Compound 5-3, 4-(1-(6-chloroquinolin-3-yl)-2-methyl-4-(4H-1,2,4-triazol-3-yl)-1H-benzo[d]imidazol-6-yl)morpholine] was 4200 nM.
On to `Cc1nc2c(-c3nnc[nH]3)cc(N3CCOCC3)cc2n1-c1cnc2cc(Cl)ccc2c1` [Compound 5-5, 4-(1-(7-chloroquinolin-3-yl)-2-methyl-4-(4H-1,2,4-triazol-3-yl)-1H-benzo[d]imidazol-6-yl)morpholine], for which the IC50 turned out to be 1200 nM.
Turning to `Cc1nc2c(C(=O)O)cc(N3CCOCC3)cc2n1-c1cccc2ccccc12` [Compound 3-2, 2-methyl-6-morpholin-4-yl-l-naphthalen-1-ylbenzimidazole-4-carboxylic acid], the IC50 came to 1800 nM.
Under `Cc1nc2c(-c3nnc[nH]3)cc(N3CCOCC3)cc2n1-c1cc2ccccc2cn1` [Compound 5-14, 4-(1-(isoquinolin-3-yl)-2-methyl-4-(4H-1,2,4-triazol-3-yl)-1H-benzo[d]imidazol-6-yl)morpholine] stands 580 nM.
